# Publication PMC9481151, “Discovery of new symmetrical and asymmetrical nitrile-containing 1,4-dihydropyridine derivatives as dual kinases and P-glycoprotein inhibitors: synthesis, in vitro assays, and in silico studies” (Journal of Enzyme Inhibition and Medicinal Chemistry, 2022)
# Several values for one entry are separate records, joined by “and”; a condition that tells them apart may be missing. Identical values can stand only once.
# Columns and labels:
# CCRF-CEM = assay: NCI single dose (10 µM) SRB screen; type: cell-based, human; details: leukaemia, 48 h
# HL-60(TB) = assay: NCI single dose (10 µM) SRB screen; type: cell-based, human; details: leukaemia, 48 h
# RPMI-8226 = assay: NCI single dose (10 µM) SRB screen; type: cell-based, human; details: leukaemia, 48 h
# A549/ATCC = assay: NCI single dose (10 µM) SRB screen; type: cell-based, human; details: non-small cell lung cancer, 48 h
# HOP-62 = assay: NCI single dose (10 µM) SRB screen; type: cell-based, human; details: non-small cell lung cancer, 48 h
# SF-295 = assay: NCI single dose (10 µM) SRB screen; type: cell-based, human; details: CNS cancer, 48 h
# SNB-75 = assay: NCI single dose (10 µM) SRB screen; type: cell-based, human; details: CNS cancer, 48 h
# MDA-MB-435 = assay: NCI single dose (10 µM) SRB screen; type: cell-based, human; details: melanoma, 48 h
# SK-MEL-28 = assay: NCI single dose (10 µM) SRB screen; type: cell-based, human; details: melanoma, 48 h
# SK-OV-3 = assay: NCI single dose (10 µM) SRB screen; type: cell-based, human; details: ovarian cancer, 48 h
# BT-549 = assay: NCI single dose (10 µM) SRB screen; type: cell-based, human; details: breast cancer, 48 h
# [1] = tested on: drug-resistant HCT-116/ADR cells; assay: Potentiation of DOX cytotoxicity (reversal DOX effect, P-gp modulation); type: cell-based, human; details: IC50 (DOX) without modulator / IC50 (DOX) with modulator
# EGFR = EGFR (Homo sapiens, UniProt P00533); assay: EGFR kinase inhibitory activity; type: biochemical; details: for EGFR Potency: (IC50 lapatinib/IC50 Compound)*100; for IC50: read-out: EGFR IC50 ± SD
# HER-2 = HER-2 (Homo sapiens, UniProt P04626); assay: HER-2 kinase inhibitory activity; type: biochemical; details: for HER-2 Potency: (IC50 lapatinib/IC50 Compound)*100; for IC50: read-out: HER-2 IC50 ± SD
# BTK = BTK (Homo sapiens, UniProt Q06187); assay: BTK inhibitory activity; type: biochemical; details: for BTK Potency: (IC50 lapatinib/IC50 Compound)*100; for IC50: read-out: BTK IC50 ± SD
# HCT-116 cells [2] = assay: Annexin V–FITC apoptosis assay; type: cell-based, human; details: HCT-116, 10 µM, 24 h
# Excerpt: Apoptosis induction is the most important mechanism by chemotherapeutics killing tumour cells.[62]^,[63] Phosphatidylserine (PS) is translocated from the inside to the outside of the plasma membrane during apoptosis, causing cellular alterations. Annexin-V binds to PS and can be employed as a sensitive probe on the plasma membrane’s outer side.[64]^,[65]
# PS externalisation was identified using the apoptosis detection kit (Annexin V-FITC/PI) (BD Biosciences) in accordance with the manufacturer’s guidelines.[79]
# HCT-116 cells [3] = assay: In vitro cell cycle analysis (DNA flow cytometry); type: cell-based, human; details: HCT-116, 24 h, IC50 concentrations
# Protocol: Targeting the cancer cell cycle has been developed as a encouraging approach for cancer therapy.[66]
# The cells were centrifuged, frozen in cold 75% ethanol, washed in phosphate buffered saline, resuspended with […] RNase, then stained with […] PI, and analysed with a FACS Calibur (Becton Dickinson, BD, Franklin Lakes, NJ). The cell cycle distributions were determined using Becton Dickinson’s CellQuest software version 5.1.[80]
# HCT-116/ADR cells = assay: cells; details: Homo sapiens, HCT-116, read-out: Cytotoxicity IC50, HCT-116/ADR
# HCT-116 cells [4] = assay: In vitro cytotoxicity; details: Homo sapiens, HCT-116, read-out: Cytotoxicity IC50, HCT-116
# Staphylococcus aureus = assay: Agar well diffusion method; details: for zone of inhibition at 1000 µg/mL: Staphylococcus aureus, 24 h, read-out: Diameter of inhibition zone, S. aureus; for % activity index, S. aureus: relative to ciprofloxacin
# Bacillus subtilis = assay: Agar well diffusion method; details: for % activity index, B. subtilis: relative to ciprofloxacin; for zone of inhibition at 1000 µg/mL: Bacillus subtilis, 24 h, read-out: Diameter of inhibition zone, B. subtilis
# Pseudomonas aeruginosa = assay: Agar well diffusion method; details: for zone of inhibition at 1000 µg/mL: Pseudomonas aeruginosa, 24 h, read-out: Diameter of inhibition zone, P. aeruginosa; for % activity index, P. aeruginosa: relative to ciprofloxacin
# S. aureus = assay: MIC, two-fold microbroth dilution method; details: Staphylococcus aureus, read-out: MIC (µg/mL) S. aureus
# B. subtilis = assay: MIC, two-fold microbroth dilution method; details: Bacillus subtilis, read-out: MIC (µg/mL) B. subtilis
# E. coli = assay: MIC, two-fold microbroth dilution method; details: Escherichia coli, read-out: MIC (µg/mL) E. coli
# P. aeruginosa = assay: MIC, two-fold microbroth dilution method; details: Pseudomonas aeruginosa, read-out: MIC (µg/mL) P. aeruginosa
# C. albicans = assay: MIC, two-fold microbroth dilution method; details: Candida albicans, read-out: MIC (µg/mL) C. albicans
# A. flavus = assay: MIC, two-fold microbroth dilution method; details: Aspergillus flavus, read-out: MIC (µg/mL) A. flavus
# BTK, sequence (Q06187 whole entry): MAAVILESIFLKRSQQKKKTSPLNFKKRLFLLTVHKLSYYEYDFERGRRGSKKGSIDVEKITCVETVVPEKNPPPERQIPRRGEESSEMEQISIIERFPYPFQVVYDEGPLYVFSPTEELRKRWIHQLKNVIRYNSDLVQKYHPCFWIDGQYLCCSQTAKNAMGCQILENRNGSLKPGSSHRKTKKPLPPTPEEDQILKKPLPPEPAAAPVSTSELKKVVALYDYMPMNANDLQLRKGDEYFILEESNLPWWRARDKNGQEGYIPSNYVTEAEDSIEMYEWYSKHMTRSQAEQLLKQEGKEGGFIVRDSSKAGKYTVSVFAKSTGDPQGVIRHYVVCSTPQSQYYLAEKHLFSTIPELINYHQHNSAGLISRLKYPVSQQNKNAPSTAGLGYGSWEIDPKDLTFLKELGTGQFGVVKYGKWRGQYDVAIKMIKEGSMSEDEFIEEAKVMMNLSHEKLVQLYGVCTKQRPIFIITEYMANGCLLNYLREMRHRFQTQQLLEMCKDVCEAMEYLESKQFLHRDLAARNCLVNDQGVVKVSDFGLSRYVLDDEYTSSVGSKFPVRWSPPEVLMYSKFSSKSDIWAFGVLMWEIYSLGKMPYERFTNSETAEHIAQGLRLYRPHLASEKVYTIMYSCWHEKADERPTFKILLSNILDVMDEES
# EGFR, sequence (P00533 25-1210): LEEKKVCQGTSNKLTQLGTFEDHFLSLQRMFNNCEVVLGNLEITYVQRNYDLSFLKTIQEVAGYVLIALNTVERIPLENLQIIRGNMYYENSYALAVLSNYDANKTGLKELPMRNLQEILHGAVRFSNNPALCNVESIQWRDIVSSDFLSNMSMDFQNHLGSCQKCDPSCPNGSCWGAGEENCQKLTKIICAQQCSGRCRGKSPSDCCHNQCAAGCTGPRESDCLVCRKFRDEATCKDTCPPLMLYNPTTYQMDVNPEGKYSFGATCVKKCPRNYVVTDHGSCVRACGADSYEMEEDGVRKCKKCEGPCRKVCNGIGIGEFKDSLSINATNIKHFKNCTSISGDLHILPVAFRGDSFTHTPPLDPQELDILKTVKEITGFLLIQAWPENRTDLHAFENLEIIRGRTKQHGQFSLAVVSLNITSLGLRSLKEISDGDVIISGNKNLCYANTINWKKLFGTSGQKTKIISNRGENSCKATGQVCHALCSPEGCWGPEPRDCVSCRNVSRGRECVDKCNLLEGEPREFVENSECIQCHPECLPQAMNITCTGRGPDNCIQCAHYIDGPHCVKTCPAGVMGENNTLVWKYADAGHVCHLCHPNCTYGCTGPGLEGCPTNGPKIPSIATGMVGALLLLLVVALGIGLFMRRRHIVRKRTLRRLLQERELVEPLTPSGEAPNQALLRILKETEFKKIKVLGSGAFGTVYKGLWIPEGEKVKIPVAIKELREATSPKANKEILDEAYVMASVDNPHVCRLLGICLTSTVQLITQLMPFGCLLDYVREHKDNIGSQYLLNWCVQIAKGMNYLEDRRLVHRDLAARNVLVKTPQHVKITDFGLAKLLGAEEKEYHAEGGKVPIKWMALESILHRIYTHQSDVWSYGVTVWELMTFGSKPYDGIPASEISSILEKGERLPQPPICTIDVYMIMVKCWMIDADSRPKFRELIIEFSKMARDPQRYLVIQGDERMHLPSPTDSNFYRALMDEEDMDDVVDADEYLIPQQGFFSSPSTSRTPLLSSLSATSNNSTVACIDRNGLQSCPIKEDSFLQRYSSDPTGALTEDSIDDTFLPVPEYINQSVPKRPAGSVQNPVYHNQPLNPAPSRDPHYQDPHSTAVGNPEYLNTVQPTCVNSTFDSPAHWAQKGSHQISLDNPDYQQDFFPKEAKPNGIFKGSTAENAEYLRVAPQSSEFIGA
# HER-2, sequence (P04626 23-1255): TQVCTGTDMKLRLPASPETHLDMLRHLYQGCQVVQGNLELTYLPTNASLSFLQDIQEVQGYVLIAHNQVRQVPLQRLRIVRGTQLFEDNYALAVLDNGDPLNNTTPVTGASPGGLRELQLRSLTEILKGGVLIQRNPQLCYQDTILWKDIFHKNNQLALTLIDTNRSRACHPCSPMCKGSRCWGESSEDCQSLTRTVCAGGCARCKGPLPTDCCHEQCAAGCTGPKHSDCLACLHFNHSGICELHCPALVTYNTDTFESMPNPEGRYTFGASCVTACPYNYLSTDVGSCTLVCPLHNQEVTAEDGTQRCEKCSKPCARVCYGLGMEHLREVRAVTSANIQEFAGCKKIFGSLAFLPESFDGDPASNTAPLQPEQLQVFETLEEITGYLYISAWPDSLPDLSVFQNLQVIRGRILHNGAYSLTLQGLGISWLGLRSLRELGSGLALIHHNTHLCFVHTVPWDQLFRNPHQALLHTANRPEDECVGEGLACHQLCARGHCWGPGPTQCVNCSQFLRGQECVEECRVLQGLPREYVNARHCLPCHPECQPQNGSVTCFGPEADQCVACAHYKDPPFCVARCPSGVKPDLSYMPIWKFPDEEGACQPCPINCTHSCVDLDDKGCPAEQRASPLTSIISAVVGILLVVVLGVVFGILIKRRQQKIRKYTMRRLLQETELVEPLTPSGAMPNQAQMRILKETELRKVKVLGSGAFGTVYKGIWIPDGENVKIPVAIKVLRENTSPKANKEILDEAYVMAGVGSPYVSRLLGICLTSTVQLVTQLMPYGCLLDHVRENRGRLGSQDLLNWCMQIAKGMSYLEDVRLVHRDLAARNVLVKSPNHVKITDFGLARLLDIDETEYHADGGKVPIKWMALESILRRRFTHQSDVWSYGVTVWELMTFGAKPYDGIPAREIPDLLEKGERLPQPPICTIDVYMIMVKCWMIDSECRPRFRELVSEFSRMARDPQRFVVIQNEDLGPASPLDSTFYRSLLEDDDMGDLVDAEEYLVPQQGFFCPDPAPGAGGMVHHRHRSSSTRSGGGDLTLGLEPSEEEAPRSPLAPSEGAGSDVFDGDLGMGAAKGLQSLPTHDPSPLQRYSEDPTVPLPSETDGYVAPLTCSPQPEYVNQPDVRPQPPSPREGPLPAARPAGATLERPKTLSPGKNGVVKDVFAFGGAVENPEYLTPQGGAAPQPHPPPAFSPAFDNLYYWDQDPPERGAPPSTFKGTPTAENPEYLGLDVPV
SMILES,GI% CCRF-CEM (CCRF-CEM),GI% HL-60(TB) (HL-60(TB)) [%],GI% RPMI-8226 (RPMI-8226),GI% A549/ATCC (A549/ATCC),GI% HOP-62 (HOP-62),GI% SF-295 (SF-295),GI% SNB-75 (SNB-75) [%],GI% MDA-MB-435 (MDA-MB-435),GI% SK-MEL-28 (SK-MEL-28),GI% SK-OV-3 (SK-OV-3),GI% BT-549 (BT-549),RF (reversal fold activity) [1],EGFR Potency (EGFR) [%],IC50 (EGFR) [nM],HER-2 Potency (HER-2) [%],IC50 (HER-2) [nM],BTK Potency (BTK) [%],"% activity index, S. aureus (Staphylococcus aureus)","% activity index, B. subtilis (Bacillus subtilis)","% activity index, P. aeruginosa (Pseudomonas aeruginosa)",other results
"COC(=O)C1=C(C)NC(C)=C(C(=O)OCc2ccccc2)C1c1cccc(C#N)c1 (racemic) [Compound 2e, (±)-3-Benzyl 5-methyl 4-(3-cyanophenyl)-2,6-dimethyl-1,4-dihydropyridine-3,5-dicarboxylate]",37%,43,52%,31%,16%,44%,34,35%,27%,– (Only GI% ≥ 10 are shown),– (Only GI% ≥ 10 are shown),7.68,67.68,80.4 ± 1.26,95.13,76.5 ± 0.87,74.91,33.3%,– (Values below 25 are of limited value and not shown as they refer either to inactive or non-diffusing compounds),30.4%,IC50 (BTK): 82.1 ± 1.4 nM; early apoptosis ratio (lower-right quadrant) (HCT-116 cells [2]): 4.37–6.17%; late apoptosis ratio (upper-right quadrant) (HCT-116 cells [2]): 9.45–11.28%; %G0-G1 (HCT-116 cells [3]): 39.17–43.25%; %G2-M (HCT-116 cells [3]): 26.03–31.84%; %Pre-G1 (HCT-116 cells [3]): 15.57–19.36%; IC50 (HCT-116/ADR cells): 29400 ± 450 nM; IC50 (HCT-116 cells [4]): 1270 ± 420 nM; zone of inhibition at 1000 µg/mL (Staphylococcus aureus): 8 mm; zone of inhibition at 1000 µg/mL (Pseudomonas aeruginosa): 7 mm
"CC1=C(C(=O)OCc2ccccc2)C(c2cccc(C#N)c2)C(C(=O)OCc2ccccc2)=C(C)N1 [Compound 1g, Dibenzyl 4-(3-cyanophenyl)-2,6-dimethyl-1,4-dihydropyridine-3,5-dicarboxylate]",54%,62,65%,45%,10%,56%,23,36%,34%,– (Only GI% ≥ 10 are shown),– (Only GI% ≥ 10 are shown),23.48,87.44,62.2 ± 0.76,103.20,70.55 ± 0.63,101.99,62.5%,47.8%,69.6%,IC50 (BTK): 60.27 ± 0.42 nM; early apoptosis ratio (lower-right quadrant) (HCT-116 cells [2]): 4.37–6.17%; late apoptosis ratio (upper-right quadrant) (HCT-116 cells [2]): 9.45–11.28%; %G0-G1 (HCT-116 cells [3]): 39.17–43.25%; %G2-M (HCT-116 cells [3]): 26.03–31.84%; %Pre-G1 (HCT-116 cells [3]): 15.57–19.36%; IC50 (HCT-116/ADR cells): 10610 ± 100 nM; IC50 (HCT-116 cells [4]): 990 ± 580 nM; zone of inhibition at 1000 µg/mL (Staphylococcus aureus): 15 mm; zone of inhibition at 1000 µg/mL (Bacillus subtilis): 11 mm; zone of inhibition at 1000 µg/mL (Pseudomonas aeruginosa): 16 mm; MIC (S. aureus): 64 µg/mL; MIC (B. subtilis): 32 µg/mL; MIC (E. coli): 32 µg/mL; MIC (P. aeruginosa): 32 µg/mL; MIC (C. albicans): 64 µg/mL; MIC (A. flavus): > 64 µg/mL
"CCOC(=O)C1=C(C)NC(C)=C(C(=O)OCc2ccccc2)C1c1cccc(C#N)c1 (racemic) [Compound 2l, (±)-3- Benzyl 5-ethyl 4-(3-cyanophenyl)-2,6-dimethyl-1,4-dihydropyridine-3,5-dicarboxylate]",74%,83,67%,65%,54%,84%,104,110%,48%,24%,68%,10.05,72.29,75.2 ± 0.95,89.10,81.7 ± 0.92,96.35,– (Values below 25 are of limited value and not shown as they refer either to inactive or non-diffusing compounds),– (Values below 25 are of limited value and not shown as they refer either to inactive or non-diffusing compounds),– (Values below 25 are of limited value and not shown as they refer either to inactive or non-diffusing compounds),IC50 (BTK): 63.8 ± 0.55 nM; early apoptosis ratio (lower-right quadrant) (HCT-116 cells [2]): 4.37–6.17%; late apoptosis ratio (upper-right quadrant) (HCT-116 cells [2]): 9.45–11.28%; %G0-G1 (HCT-116 cells [3]): 39.17–43.25%; %G2-M (HCT-116 cells [3]): 26.03–31.84%; %Pre-G1 (HCT-116 cells [3]): 15.57–19.36%; IC50 (HCT-116/ADR cells): 15830 ± 130 nM; IC50 (HCT-116 cells [4]): 1110 ± 450 nM
"COCCOC(=O)C1=C(C)NC(C)=C(C(=O)OCCOC)C1c1cccc(C#N)c1 [Compound 1f, Di(2-methoxyethyl) 4-(3-cyanophenyl)-2,6-dimethyl-1,4-dihydropyridine-3,5-dicarboxylate]",– (Only GI% ≥ 10 are shown),10,– (Only GI% ≥ 10 are shown),– (Only GI% ≥ 10 are shown),– (Only GI% ≥ 10 are shown),– (Only GI% ≥ 10 are shown),14,– (Only GI% ≥ 10 are shown),– (Only GI% ≥ 10 are shown),– (Only GI% ≥ 10 are shown),12%,–,–,–,–,–,–,79% and 79.2%,69.6%,73.9%,melting point: 125 to 126 °C; zone of inhibition at 1000 µg/mL (Staphylococcus aureus): 19 mm; zone of inhibition at 1000 µg/mL (Bacillus subtilis): 16 mm; zone of inhibition at 1000 µg/mL (Pseudomonas aeruginosa): 17 mm; MIC (S. aureus): 4 µg/mL; MIC (B. subtilis): 2 µg/mL; MIC (E. coli): 8 µg/mL; MIC (P. aeruginosa): 16 µg/mL; MIC (C. albicans): 16 µg/mL; MIC (A. flavus): 16 µg/mL
